From ChEMBL document CHEMBL1139685, “Antimalarial activity of N-alkyl amine, carboxamide, sulfonamide, and urea derivatives of a dispiro-1,2,4-trioxolane piperidine” (Bioorg Med Chem Lett, 2006)
Converted amounts (≈) assume the structure as drawn.

How the values were obtained:
[1] = system: Mus musculus; test: Survival of MORO mice (Mus musculus) infected with Plasmodium berghei at 10 mg/kg, subcutaneously after 30 day post-infection; format: functional; conditions: route subcutaneous
[2] = system: Mus musculus; test: Survival of MORO mice (Mus musculus) infected with Plasmodium berghei at 10 mg/kg, perorally after 30 day post-infection; format: functional; conditions: route oral
[3] = system: Plasmodium falciparum; test: Antimalarial activity against Plasmodium falciparum K1; format: functional, organism-based
[4] = system: Plasmodium falciparum; test: Antimalarial activity against Plasmodium falciparum NF54; format: functional, organism-based
[5] = system: Plasmodium berghei; test: Antimalarial activity in Plasmodium berghei infected MORO mice (Mus musculus) at 10 mg/kg peroral dose; format: functional; conditions: route oral
[6] = Lipophilicity, LogD at pH 7.4; format: physicochemical; conditions: buffer
[7] = system: Plasmodium berghei; test: Antimalarial activity in Plasmodium berghei infected MORO mice (Mus musculus) at 10 mg/kg subcutaneous dose; format: functional
[8] = Partition coefficient, logP of the compound; format: physicochemical; conditions: octanol/water

Compound	Activity [1] [days]	Activity [2] [days]	IC50 [3] [ng/mL]	IC50 [4] [ng/mL]	Activity [5] [%]	logD [6]	Activity [7] [%]	logP [8]
COCC(=O)N1CC[C@]2(CC1)OO[C@]1(O2)C2CC3CC(C2)CC1C3	7.3	7.3	0.95 (≈ 2.82 nM)	0.2 (≈ 0.593 nM)	–	–	–	–
C1CC2(CCN1)OOC1(O2)C2CC3CC(C2)CC1C3.Cl (centres undefined)	7.7	6.3	0.15	0.34	59	0.25	84	–
O=S(=O)(c1ccccc1)N1CCC2(CC1)OOC1(O2)C2CC3CC(C2)CC1C3 (centres undefined)	10.3	6	1.1 (≈ 2.71 nM)	1.2 (≈ 2.96 nM)	71	–	>99.99	5.5
C1CCC2(CC1)OOC1(O2)C2CC3CC(C2)CC1C3 (centres undefined)	11.9	7.2	0.97 (≈ 3.67 nM)	1.4 (≈ 5.3 nM)	94	–	>99.99	6.1
O=C(CO)N1CCC2(CC1)OOC1(O2)C2CC3CC(C2)CC1C3 (centres undefined)	8	7	0.3 (≈ 0.928 nM)	0.6 (≈ 1.86 nM)	92	–	99.8	2.4
O=C(N1CCOCC1)N1CCC2(CC1)OOC1(O2)C2CC3CC(C2)CC1C3 (centres undefined)	9	8.7	–	–	–	–	–	–
O=C(O)CCC(=O)N1CCC2(CC1)OOC1(O2)C2CC3CC(C2)CC1C3 (centres undefined)	6.3	6	7.1 (≈ 19.4 nM)	7.2 (≈ 19.7 nM)	39	–	52	2.3
O=C(O)c1ccccc1C(=O)N1CCC2(CC1)OOC1(O2)C2CC3CC(C2)CC1C3 (centres undefined)	6.3	6.3	22 (≈ 53.2 nM)	13 (≈ 31.4 nM)	–	1.2	–	–
NC(=O)N1CCC2(CC1)OOC1(O2)C2CC3CC(C2)CC1C3 (centres undefined)	8.7	8.3	–	–	–	–	–	–
CC(C)(C)NC(=O)N1CCC2(CC1)OOC1(O2)C2CC3CC(C2)CC1C3 (centres undefined)	9.7	6.7	0.98 (≈ 2.69 nM)	1.8 (≈ 4.94 nM)	–	–	–	–
CCS(=O)(=O)CCN1CCC2(CC1)OOC1(O2)C2CC3CC(C2)CC1C3 (centres undefined)	8	7	1 (≈ 2.59 nM)	2.9 (≈ 7.52 nM)	–	2.3	–	–
Cc1ccc(NC(=O)N2CCC3(CC2)OOC2(O3)C3CC4CC(C3)CC2C4)cc1 (centres undefined)	14.3	6	2.3 (≈ 5.77 nM)	2.3 (≈ 5.77 nM)	–	–	–	–
CN1CCN(C(=O)N2CCC3(CC2)OOC2(O3)C3CC4CC(C3)CC2C4)CC1 (centres undefined)	8.3	7.3	0.2 (≈ 0.511 nM)	0.22 (≈ 0.562 nM)	–	2.6	–	–
CCS(=O)(=O)N1CCC2(CC1)OOC1(O2)C2CC3CC(C2)CC1C3 (centres undefined)	9.3	7	0.38 (≈ 1.06 nM)	0.81 (≈ 2.27 nM)	85	–	99.94	–
O=S(=O)(Cc1ccccc1)N1CCC2(CC1)OOC1(O2)C2CC3CC(C2)CC1C3 (centres undefined)	8	5.7	1.7 (≈ 4.05 nM)	4.1 (≈ 9.77 nM)	–	–	–	–
c1ccc(CN2CCC3(CC2)OOC2(O3)C3CC4CC(C3)CC2C4)cc1 (centres undefined)	10	6	2.5 (≈ 7.03 nM)	2.6 (≈ 7.31 nM)	–	3.5	–	–
CN(C)C(=O)N1CCC2(CC1)OOC1(O2)C2CC3CC(C2)CC1C3 (centres undefined)	7	7	0.7 (≈ 2.08 nM)	–	–	–	–	–
O=C(Nc1ccc(Cl)cc1)N1CCC2(CC1)OOC1(O2)C2CC3CC(C2)CC1C3 (centres undefined)	13.7	6	–	–	–	–	–	–
CO[C@H]1O[C@@H]2O[C@@]3(C)CC[C@H]4[C@H](C)CC[C@@H]([C@H]1C)[C@@]24OO3	9.1	7.9	0.74 (≈ 2.48 nM)	1.2 (≈ 4.02 nM)	98	–	99.78	3.3
CC(=O)Nc1ccc(S(=O)(=O)N2CCC3(CC2)OOC2(O3)C3CC4CC(C3)CC2C4)cc1 (centres undefined)	12	6.3	1.4 (≈ 3.03 nM)	0.5 (≈ 1.08 nM)	–	–	–	–
CC(=O)N1CCC2(CC1)OOC1(O2)C2CC3CC(C2)CC1C3 (centres undefined)	7.3	6.7	0.82 (≈ 2.67 nM)	0.93 (≈ 3.03 nM)	81	–	85	3.8
CC(C)(C)CC(=O)N1CCC2(CC1)OOC1(O2)C2CC3CC(C2)CC1C3 (centres undefined)	8.3	7.7	–	–	–	–	–	–
c1cc(CN2CCC3(CC2)OOC2(O3)C3CC4CC(C3)CC2C4)ccn1 (centres undefined)	11	6.3	0.4 (≈ 1.12 nM)	0.67 (≈ 1.88 nM)	–	2.7	–	–
O=C(Nc1ccccc1)N1CCC2(CC1)OOC1(O2)C2CC3CC(C2)CC1C3 (centres undefined)	19.7	7	–	–	–	–	–	–
O=C(c1ccncc1)N1CCC2(CC1)OOC1(O2)C2CC3CC(C2)CC1C3 (centres undefined)	7	6.7	–	–	–	–	–	–
CC(C)N(C(=O)N1CCC2(CC1)OOC1(O2)C2CC3CC(C2)CC1C3)C(C)C (centres undefined)	20.3	8.3	–	6.6 (≈ 16.8 nM)	–	–	–	–
CS(=O)(=O)N1CCC2(CC1)OOC1(O2)C2CC3CC(C2)CC1C3 (centres undefined)	10.3	6.7	0.59 (≈ 1.72 nM)	0.64 (≈ 1.86 nM)	93	–	99.97	–
O=C(c1ccccc1)N1CCC2(CC1)OOC1(O2)C2CC3CC(C2)CC1C3 (centres undefined)	8.7	7	0.35 (≈ 0.947 nM)	0.58 (≈ 1.57 nM)	93	–	99.9	5.6
O=C(N1CCCC1)N1CCC2(CC1)OOC1(O2)C2CC3CC(C2)CC1C3 (centres undefined)	9.7	7.3	3.9 (≈ 10.8 nM)	6.7 (≈ 18.5 nM)	–	–	–	–
C[C@H]1[C@H](OC(=O)CCC(=O)O)O[C@@H]2O[C@@]3(C)CC[C@H]4[C@H](C)CC[C@@H]1[C@@]24OO3 [ARTESUNATE]	6.8	6.8	–	–	65	–	65	–
